Laboratory results: US11529334B2, “Pharmaceutical composition for treating or preventing Parkinson's disease comprising STT as an active ingredient” (GACHON UNIVERSITY OF INDUSTRY—ACADEMIC COOPERATION …, priority 2019, dated 2022)
pKd: −log10 of the molar value.

Target: T1, TPP domain of DUSP10 (Homo sapiens, UniProt Q9Y6W6)
T1 sequence (Q9Y6W6 321-464 limits assumed): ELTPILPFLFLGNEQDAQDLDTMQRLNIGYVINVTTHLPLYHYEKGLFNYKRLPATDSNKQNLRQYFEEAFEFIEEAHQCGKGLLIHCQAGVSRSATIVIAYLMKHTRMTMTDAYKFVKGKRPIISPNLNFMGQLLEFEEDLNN
Assay: SPR (Surface Plasmon Resonance) assay, Reichert SR7500DC
Format: binding
Method: SPR (Surface Plasmon Resonance) assay was performed using Reichert SR7500DC system to confirm the presence or absence of interaction between the compounds above and the TPP domain of DUSP10.

[1] = Table 1, running buffer 1xPBS, 2% DMSO
[2] = Table 1, running buffer 1xPBS, pH 7.4

interaction with the TPP domain (in words) (SPR): weak interaction
Ka (association rate) [1]: 2.90(4) M−^1-s−^1
pKd [1]: 1.91
Kd (dissociation rate) [1]: 0.0357(6) s−^1
Ka (association rate) [2]: 3.50(5) M−^1-s−^1
pKd [2]: 1.75
Kd (dissociation rate) [2]: 0.0627(9) s−^1
pKd (Table 2, 0-200 mM analyte): 1.20
Ka (Table 2, higher analyte concentrations (MES up to 200 mM, STT up to 10 mM)): 0.152(7) M−^1-s−^1
dissociation rate constant (kd) (Table 2, second column headed Ka, higher analyte concentrations): 0.0096(2) s−^1
Compound: O=S(=O)(O)CCN1CCOCC1 [MES]
